Assay results published in patent US20240092835A1, “NOVEL PEPTIDES CAPABLE OF ALTERING NK CELL ACTIVITY” (Massachusetts Institute of Technology, priority 2022, published 2024).
Where no end group is shown, it is not given here.

Tests used:
[1] = test system: NKG2A−/NKG2C− NK cells; experiment: NK cell activation markers in control NKG2A-/NKG2C- NK cells incubated with peptide and K562 expressing HLA-E; type: cell-based, human
In short: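 Read-out: % NK cells positive for surface activation markers; a rise indicates activation, a fall indicates inhibition. Targets were K562 cells expressing HLA-E, loaded with human- or HCMV-proteome-derived peptides.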

[2] = biological target: CD94/NKG2A (Homo sapiens, UniProt P26715+Q13241); experiment: Steady-state surface plasmon resonance of peptide-HLA-E complex with CD94/NKG2A; type: binding; settings: for Binding of peptide-HLA-E complexes to CD94/NKG2A normalized to a theoretical Rmax: steady-state SPR
Sequence of CD94/NKG2A (P26715 94-233 limits assumed): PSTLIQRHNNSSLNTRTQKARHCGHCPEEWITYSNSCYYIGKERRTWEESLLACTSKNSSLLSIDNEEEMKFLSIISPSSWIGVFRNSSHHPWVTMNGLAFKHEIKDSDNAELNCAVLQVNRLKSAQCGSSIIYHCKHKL
Sequence of CD94/NKG2A (Q13241 32-179 limits assumed): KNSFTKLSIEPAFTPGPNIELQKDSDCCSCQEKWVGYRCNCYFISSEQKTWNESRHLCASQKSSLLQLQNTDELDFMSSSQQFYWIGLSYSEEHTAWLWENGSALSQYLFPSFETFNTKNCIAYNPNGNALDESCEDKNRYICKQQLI
Method: Binding affinity of novel peptides linked to HLA-E was determined using surface plasmon resonance (SPR), a methodology used to study protein-protein interactions (Tables 15-19). The peptide-HLA-E complex (generated as a single chain trimer) was immobilized on the sensor chip surface and CD94/NKG2A or CD94/NKG2C were flowed over. Steady-state surface plasmon resonance experiments were performed with a Biacore T200 instrument. CD94/NKG2x in HBS-EP+ buffer was injected as analyte in a concentration range of 0.1 μM to 102.4 μM and flow rate of 10 μL/min at 25° C. Data was fit with Prism 9.4 (GraphPad Software Inc; San Diego CA) to a “one site, specific binding” model. Series S CM5 chips were coupled to neutravidin and utilized. Biotinylated pMHC was immobilized at approximately 400 RU. KD values calculated by Biacore software are reported. Rmax, fit values were calculated by Biacore software. Rmax, theoretical values were calculated using the analyte/ligand mass ratio (0.66) multiplied by the amount of ligand coupled to the chip.

[3] = CD94/NKG2A concentration 0.1 μM
[4] = CD94/NKG2A concentration 0.2 μM
[5] = CD94/NKG2A concentration 0.4 μM
[6] = CD94/NKG2A concentration 0.8 μM
[7] = CD94/NKG2A concentration 1.6 μM
[8] = CD94/NKG2A concentration 3.2 μM
[9] = CD94/NKG2A concentration 6.4 μM
[10] = CD94/NKG2A concentration 12.8 μM
[11] = CD94/NKG2A concentration 25.6 μM
[12] = CD94/NKG2A concentration 51.2 μM
[13] = CD94/NKG2A concentration 102.4 μM
[14] = CD94/NKG2A analyte concentration 0.000 μM
[15] = CD94/NKG2A analyte concentration 0.100 μM
[16] = CD94/NKG2A analyte concentration 0.200 μM
[17] = CD94/NKG2A analyte concentration 0.400 μM
[18] = CD94/NKG2A analyte concentration 0.800 μM
[19] = CD94/NKG2A analyte concentration 1.600 μM
[20] = CD94/NKG2A analyte concentration 3.200 μM
[21] = CD94/NKG2A analyte concentration 6.400 μM
[22] = CD94/NKG2A analyte concentration 12.800 μM
[23] = CD94/NKG2A analyte concentration 25.600 μM
[24] = CD94/NKG2A analyte concentration 51.200 μM
[25] = CD94/NKG2A analyte concentration 102.400 μM

## TGPWRSLWI [human3, TGPWRSLWI]
[1]; Trial 1
  percentage CCL3+ NK cells: 38.1%
  percentage CD107+ NK cells: 28.9%
  percentage TNF+ NK cells: 4.31%
  percentage of IFNG+ NK cells: 17.2%
[1]; Trial 2
  percentage CCL3+ NK cells: 61%
  percentage CD107+ NK cells: 37.9%
  percentage TNF+ NK cells: 8.81%
  percentage of IFNG+ NK cells: 26.9%
[1]; Trial 3
  percentage CCL3+ NK cells: 55.4%
  percentage CD107+ NK cells: 50.4%
  percentage TNF+ NK cells: 20.8%
  percentage of IFNG+ NK cells: 44%
[1]; Trial 4
  percentage CCL3+ NK cells: 36.6%
  percentage CD107+ NK cells: 32.6%
  percentage TNF+ NK cells: 11.3%
  percentage of IFNG+ NK cells: 21.2%
[1]; Trial 5
  percentage CCL3+ NK cells: 31%
  percentage CD107+ NK cells: 26.2%
  percentage TNF+ NK cells: 8.06%
  percentage of IFNG+ NK cells: 19.1%
[1]; Trial 6
  percentage CCL3+ NK cells: 26.5%
  percentage CD107+ NK cells: 18.6%
  percentage TNF+ NK cells: 4.18%
  percentage of IFNG+ NK cells: 8.37%
[2]; CD94/NKG2A concentration 0 μM
  binding of peptide-HLA-E complex to CD94/NKG2A normalized to a fitted Rmax: 0.013
[2]; [3]
  binding of peptide-HLA-E complex to CD94/NKG2A normalized to a fitted Rmax: 0.015
[2]; [4]
  binding of peptide-HLA-E complex to CD94/NKG2A normalized to a fitted Rmax: 0.019
[2]; [5]
  binding of peptide-HLA-E complex to CD94/NKG2A normalized to a fitted Rmax: 0.030
[2]; [6]
  binding of peptide-HLA-E complex to CD94/NKG2A normalized to a fitted Rmax: 0.051
[2]; [7]
  binding of peptide-HLA-E complex to CD94/NKG2A normalized to a fitted Rmax: 0.086
[2]; [8]
  binding of peptide-HLA-E complex to CD94/NKG2A normalized to a fitted Rmax: 0.145
[2]; [9]
  binding of peptide-HLA-E complex to CD94/NKG2A normalized to a fitted Rmax: 0.231
[2]; [10]
  binding of peptide-HLA-E complex to CD94/NKG2A normalized to a fitted Rmax: 0.336
[2]; [11]
  binding of peptide-HLA-E complex to CD94/NKG2A normalized to a fitted Rmax: 0.472
[2]; [12]
  binding of peptide-HLA-E complex to CD94/NKG2A normalized to a fitted Rmax: 0.639
[2]; [13]
  binding of peptide-HLA-E complex to CD94/NKG2A normalized to a fitted Rmax: 0.827
[2]; [14]
  Binding of peptide-HLA-E complexes to CD94/NKG2A normalized to a theoretical Rmax: 0.004
[2]; [15]
  Binding of peptide-HLA-E complexes to CD94/NKG2A normalized to a theoretical Rmax: 0.005
[2]; [16]
  Binding of peptide-HLA-E complexes to CD94/NKG2A normalized to a theoretical Rmax: 0.006
[2]; [17]
  Binding of peptide-HLA-E complexes to CD94/NKG2A normalized to a theoretical Rmax: 0.009
[2]; [18]
  Binding of peptide-HLA-E complexes to CD94/NKG2A normalized to a theoretical Rmax: 0.015
[2]; [19]
  Binding of peptide-HLA-E complexes to CD94/NKG2A normalized to a theoretical Rmax: 0.026
[2]; [20]
  Binding of peptide-HLA-E complexes to CD94/NKG2A normalized to a theoretical Rmax: 0.044
[2]; [21]
  Binding of peptide-HLA-E complexes to CD94/NKG2A normalized to a theoretical Rmax: 0.070
[2]; [22]
  Binding of peptide-HLA-E complexes to CD94/NKG2A normalized to a theoretical Rmax: 0.102
[2]; [23]
  Binding of peptide-HLA-E complexes to CD94/NKG2A normalized to a theoretical Rmax: 0.143
[2]; [24]
  Binding of peptide-HLA-E complexes to CD94/NKG2A normalized to a theoretical Rmax: 0.194
[2]; [25]
  Binding of peptide-HLA-E complexes to CD94/NKG2A normalized to a theoretical Rmax: 0.250

## TLPKRGLFL [human2, TLPKRGLFL]
[1]; Trial 1
  percentage CCL3+ NK cells: 31.9%
  percentage CD107+ NK cells: 26.1%
  percentage TNF+ NK cells: 4.12%
  percentage of IFNG+ NK cells: 16.2%
[1]; Trial 2
  percentage CCL3+ NK cells: 57.4%
  percentage CD107+ NK cells: 34.1%
  percentage TNF+ NK cells: 8.51%
  percentage of IFNG+ NK cells: 24.9%
[1]; Trial 3
  percentage CCL3+ NK cells: 49.9%
  percentage CD107+ NK cells: 46.1%
  percentage TNF+ NK cells: 15.8%
  percentage of IFNG+ NK cells: 37.4%
[1]; Trial 4
  percentage CCL3+ NK cells: 34.8%
  percentage CD107+ NK cells: 30.1%
  percentage TNF+ NK cells: 9.02%
  percentage of IFNG+ NK cells: 18.9%
[1]; Trial 5
  percentage CCL3+ NK cells: 25.6%
  percentage CD107+ NK cells: 18.1%
  percentage TNF+ NK cells: 6.52%
  percentage of IFNG+ NK cells: 13.9%
[1]; Trial 6
  percentage CCL3+ NK cells: 24.6%
  percentage CD107+ NK cells: 19.1%
  percentage TNF+ NK cells: 5.25%
  percentage of IFNG+ NK cells: 10%
[2]; CD94/NKG2A concentration 0 μM
  binding of peptide-HLA-E complex to CD94/NKG2A normalized to a fitted Rmax: −0.007
[2]; [3]
  binding of peptide-HLA-E complex to CD94/NKG2A normalized to a fitted Rmax: 0.023
[2]; [4]
  binding of peptide-HLA-E complex to CD94/NKG2A normalized to a fitted Rmax: 0.046
[2]; [5]
  binding of peptide-HLA-E complex to CD94/NKG2A normalized to a fitted Rmax: 0.094
[2]; [6]
  binding of peptide-HLA-E complex to CD94/NKG2A normalized to a fitted Rmax: 0.173
[2]; [7]
  binding of peptide-HLA-E complex to CD94/NKG2A normalized to a fitted Rmax: 0.293
[2]; [8]
  binding of peptide-HLA-E complex to CD94/NKG2A normalized to a fitted Rmax: 0.450
[2]; [9]
  binding of peptide-HLA-E complex to CD94/NKG2A normalized to a fitted Rmax: 0.618
[2]; [10]
  binding of peptide-HLA-E complex to CD94/NKG2A normalized to a fitted Rmax: 0.766
[2]; [11]
  binding of peptide-HLA-E complex to CD94/NKG2A normalized to a fitted Rmax: 0.873
[2]; [12]
  binding of peptide-HLA-E complex to CD94/NKG2A normalized to a fitted Rmax: 0.942
[2]; [13]
  binding of peptide-HLA-E complex to CD94/NKG2A normalized to a fitted Rmax: 0.954
[2]; [14]
  Binding of peptide-HLA-E complexes to CD94/NKG2A normalized to a theoretical Rmax: −0.005
[2]; [15]
  Binding of peptide-HLA-E complexes to CD94/NKG2A normalized to a theoretical Rmax: 0.017
[2]; [16]
  Binding of peptide-HLA-E complexes to CD94/NKG2A normalized to a theoretical Rmax: 0.034
[2]; [17]
  Binding of peptide-HLA-E complexes to CD94/NKG2A normalized to a theoretical Rmax: 0.070
[2]; [18]
  Binding of peptide-HLA-E complexes to CD94/NKG2A normalized to a theoretical Rmax: 0.131
[2]; [19]
  Binding of peptide-HLA-E complexes to CD94/NKG2A normalized to a theoretical Rmax: 0.221
[2]; [20]
  Binding of peptide-HLA-E complexes to CD94/NKG2A normalized to a theoretical Rmax: 0.339
[2]; [21]
  Binding of peptide-HLA-E complexes to CD94/NKG2A normalized to a theoretical Rmax: 0.465
[2]; [22]
  Binding of peptide-HLA-E complexes to CD94/NKG2A normalized to a theoretical Rmax: 0.577
[2]; [23]
  Binding of peptide-HLA-E complexes to CD94/NKG2A normalized to a theoretical Rmax: 0.657
[2]; [24]
  Binding of peptide-HLA-E complexes to CD94/NKG2A normalized to a theoretical Rmax: 0.709
[2]; [25]
  Binding of peptide-HLA-E complexes to CD94/NKG2A normalized to a theoretical Rmax: 0.718
